Consider three substances from patent publication US20110105393A1, “METHODS FOR PROMOTING STEM CELL PROLIFERATION AND SURVIVAL” (priority 2007, published 2011).

One data set concerns STAT3-Ser727. The data set is described as follows: STAT3-Ser727 phosphorylation in NSC cultures. Format: cell-based, mouse. The procedure: Cell culture: E13.5 cortical embryonic mouse CNS stem cells were grown as previously described (Johe, et al., Genes Dev 10, 3129-40, 1996). Cells were expanded in serum-free DMEM/F12 medium with N2 supplement and FGF2 (20 ng/ml) for 5 days under 5% oxygen conditions and were re-plated fresh or from frozen stocks at 1,000-10,000 cells per cm^2. FGF2 was included throughout the studies, unless otherwise stated. […] Pharmacological treatments: Unless otherwise stated, the following concentrations were used: Dll4 and Ang-2 (in vitro, 500 ng/ml; in vivo 12.5 μg as a single injection), FGF2 (in vitro, 20 ng/ml), JAK inhibitor (in vitro, 200 nM; in vivo, 250 ng as a single injection), insulin (in vitro, 25 μg/ml; in vivo, 40 μg as a single injection), DAPT (1 μM), Fluorogold (0.5 μg). For the survival assays, compounds were added daily and Notch ligands every 2 days for the duration of the experiment. For the effects of kinase inhibitors on Notch activation, cells were pre-incubated for 1 h prior to Notch activation. […] Activation of the Notch receptor by addition of insulin or Dll4 was inhibited by DAPT, a γ-secretase inhibitor that blocks Notch cleavage. […] Insulin maintained STAT[…]727 phosphorylation levels, and acutely (1-h) induced it following a 16-h insulin withdrawal phase (FIG. 1c). […] Fetal NSCs in culture express Ang-1, and treatment (2 days) with Dll4 maintained it whereas CNTF reduced it. Ang-2 expression was maintained under these conditions. […] Ang-2 induced mTOR and STAT3-S727 phosphorylation, unlike Ang-1 (FIG. 2a). Ang-1, however, induced Akt phosphorylation.

A further data set concerns NSC cultures. The data set is described as follows: Incidence of Tie-2 spikes in NSC cultures. The data set is classed as cell-based. The conditions noted are these: for % of cells with at least one spike: NSC cultures; for spike number: thirty minutes after treatment. The procedure:
A protrusion of the cell membrane was identified in neuronal stem cells (NSCs) when the Tie-2 receptor is concentrated. This can be visualized using antibodies that bind Tie-2. The protrusion was termed a spike. These spikes appear 30 minutes after treatment with pharmaceutical agents. […] increase spike number thirty minutes after treatment. […] Thus, a novel sub-cellular structure ahs been identified. These structures could regulate the responsiveness of cells to treatments.
Thus, a novel protrusion of the cell membrane in NSCs has been identified where the Tie-2 receptor is concentrated. This can be easily visualized using an antibody against Tie-2 that recognizes a particular epitope. […] Indeed, the spike is devoid of actin filaments or tubulin. The spikes can be detected within thirty minutes of contacting the cultures with an the factors. Thus, the spikes provide a rapid assay for the effect of pharmacologic agents.

The subject of another data set is adult mouse SVZ cultures. In words: Survival/generation of adult mouse SVZ NSC cultures (colony and cell number). Format: cell-based. On the procedure:
(§1) Cell culture: E13.5 cortical embryonic mouse CNS stem cells were grown as previously described (Johe, et al., Genes Dev 10, 3129-40, 1996). Cells were expanded in serum-free DMEM/F12 medium with N2 supplement and FGF2 (20 ng/ml) for 5 days under 5% oxygen conditions and were re-plated fresh or from frozen stocks at 1,000-10,000 cells per cm^2. FGF2 was included throughout the studies, unless otherwise stated. Adult rat (3-6 months old) or adult mouse (2-4 months old) SVZ NSC cultures were grown in the same medium as the fetal cultures.
(§2) Pharmacological treatments: Unless otherwise stated, the following concentrations were used: Dll4 and Ang-2 (in vitro, 500 ng/ml; in vivo 12.5 μg as a single injection), FGF2 (in vitro, 20 ng/ml), JAK inhibitor (in vitro, 200 nM; in vivo, 250 ng as a single injection), insulin (in vitro, 25 μg/ml; in vivo, 40 μg as a single injection), DAPT (1 μM), Fluorogold (0.5 μg). For the survival assays, compounds were added daily and Notch ligands every 2 days for the duration of the experiment. For the effects of kinase inhibitors on Notch activation, cells were pre-incubated for 1 h prior to Notch activation.
Hes3 mRNA is present in fetal NSC cultures under conditions that support their self-renewal but CNTF-induced differentiation (Bonni, A. et al., Science 278, 477-83, 1997; Rajan & McKay, J Neurosci 18, 3620-9, 1998): downregulates Hes3 message (Androutsellis-Theotokis, A. et al., Nature 442, 823-6, 2006). Knockout studies have shown a role of Hes3 in self-renewal (Hatakeyama, J. et al., Development 131, 5539-50, 2004). It was investigated if Hes3 mediates stem cell functions in vitro to assess its use as a functional NSC marker. Fetal (E13.5) cortical tissue was dissociated and magnetic sorting was used to isolate a cell population that expressed AC133, an established marker of NSCs (Uchida, N. et al., Proc Natl Acad Sci USA 97, 14720-5, 2000). Sorted (AC133+) cells expressed Hes3 and Sox2, another established NSC marker (Zappone, M. V. et al., Development 127, 2367-82, 2000). […] To investigate if Hes3 is a mediator of pro-survival signals for NSCs, adult mouse SVZ cultures (which respond strongly to pro-survival signals) were treated with insulin, Dll4, and a combination of the two.

In the next data set the test system is Notch receptor. The data set is described as follows: Notch receptor cleavage (activation) in NSC cultures. Format: cell-based, mouse. On the procedure:
as §1, §2
It was previously shown that in NSCs Notch activation leads to rapid phosphorylation of Akt (Androutsellis-Theotokis, A. et al., Nature 442, 823-6, 2006), a mediator of insulin signalling (Cantley, Science 296, 1655-7, 2002). […] Activation of the Notch receptor by addition of insulin or Dll4 was inhibited by DAPT, a γ-secretase inhibitor that blocks Notch cleavage. […] Insulin maintained STAT3-Ser727 phosphorylation levels, and acutely (1-h) induced it following a 16-h insulin withdrawal phase (FIG. 1c).

Where [1] appears, read: wild-type adult mouse SVZ cultures.

Take “Ang-2: human angiopoietin-2 (623-AN) from R&D; antagonist for angiopoietin-1 at Tie2”: the STAT3-S727 phosphorylation result in the data set on STAT3-Ser727 (NSC cultures, 0.5 μg/ml (FIG. 2a)) was “induced”. Besides, the “pathology associated with the 6OHDA lesion” value (single intraventricular injection 2 weeks after lesion) was “hemorrhage and an enlarged ventricle”. The risk of bleeding result (summary of in vivo treatments) was “increases the risk of bleeding”. Moreover, in the data set with NSC cultures, the “% of cells with at least one spike” value stood at 2.5% and the spike number result is reported as “increase”.
Consider “Dll4: Notch ligand Delta-like 4; mouse Dll4 (1389-D4) from R&D”, for which the “colony number and overall cell number” value in the data set with adult mouse SVZ cultures (cells from Hes3 null mice) is “moderate (but significant) benefits”. Further, in the data set with adult mouse SVZ cultures (setting [1]), the “colony number and overall cell number” value is listed as “great increase”. Besides, in the data set on NSC cultures, the “% of cells with at least one spike” value turned out to be 2.1% and the spike number result is on record as “increase”.
Turning to “insulin: insulin (Sigma, 19278), growth factor”, the Notch activation result in the data set with Notch receptor (acute (1 h) treatment after insulin withdrawal for 2 days) was “induced Notch activation”. In addition, the “cleavage (activation) of the Notch receptor” value in the data set on Notch receptor (treatment of NSC cultures) is on record as “induced cleavage”. Also, the STAT3-Ser727 phosphorylation entry with STAT3-Ser727 (acute (1-h) addition following a 16-h insulin withdrawal) is “induced”. The STAT3-Ser727 phosphorylation levels entry in the data set with STAT3-Ser727 (continued presence in NSC culture) was “maintained”. Further, the figures for the “colony number and overall cell number” value in the data set with adult mouse SVZ cultures (cells from Hes3 null mice) and in the data set on adult mouse SVZ cultures (setting [1]) were “moderate (but significant) benefits” and “great increase”, respectively.
